{"source": "patent EP0195316A1", "about": "“Quinolonecarboxylic acid derivatives” (KYORIN PHARMACEUTICAL CO., LTD., priority 1985, dated 1986)", "assay_in_all_cases": "MIC, in vitro antibacterial activity (standard strains)", "type_in_all_cases": "cell-based", "key": {"[1]": {"system": "Bacillus subtilis PCI 219", "details": "PCI219; Bacillus subtilis PCI 219, 10^6 cells/ml, Gram +"}, "[2]": {"system": "Staphylococcus aureus 209 P", "details": "10^6 cells/ml, Gram +"}, "[3]": {"system": "S. aureus IID 670 (Terajima)", "details": "Staphylococcus aureus, IID670, 10^6 cells/ml, Gram +"}, "S. epidermidis IID 866": {"system": "S. epidermidis IID 866", "details": "Staphylococcus epidermidis, IID866; S. epidermidis IID 866, 10^6 cells/ml, Gram +"}, "[4]": {"system": "Streptococcus pyogenes (S-8)", "details": "Streptococcus pyogenes (S-8), 10^6 cells/ml, Gram +; read-out: MIC"}, "S. pyogenes IID 692": {"system": "S. pyogenes IID 692", "details": "Streptococcus pyogenes, IID692; S. pyogenes IID 692, 10^6 cells/ml, Gram +"}, "S. pneumoniae IID 552": {"system": "S. pneumoniae IID 552", "details": "Streptococcus pneumoniae, IID552; S. pneumoniae IID 552, 10^6 cells/ml, Gram +; read-out: MIC"}, "E. faecalis IID 682": {"system": "E. faecalis IID 682", "details": "Enterococcus faecalis, IID682; E. faecalis IID 682, 10^6 cells/ml, Gram +"}, "[5]": {"system": "Escherichia coli NIHJ JC-2", "details": "NIHJJC2; Escherichia coli NIHJ JC-2, 10^6 cells/ml, Gram -; read-out: MIC"}, "E. coli ATCC 10536": {"system": "E. coli ATCC 10536", "details": "Escherichia coli, ATCC10536; E. coli ATCC 10536, 10^6 cells/ml, Gram -; read-out: MIC"}, "[6]": {"system": "Proteus vulgaris IFO 3167", "details": "IFO3167; Proteus vulgaris IFO 3167, 10^6 cells/ml, Gram -; read-out: MIC"}, "P. mirabilis IID 994": {"system": "P. mirabilis IID 994", "details": "Proteus mirabilis, IID994; P. mirabilis IID 994, 10^6 cells/ml, Gram -; read-out: MIC"}, "P. morganii IID 602": {"system": "P. morganii IID 602", "details": "Morganella morganii, IID602; P. morganii IID 602, 10^6 cells/ml, Gram -"}, "[7]": {"system": "Klebsiella pneumoniae KY(GN)6445", "details": "Klebsiella pneumoniae KY(GN)6445, 10^6 cells/ml, Gram -; read-out: MIC"}, "K. pneumoniae 1-220S": {"system": "K. pneumoniae 1-220S", "details": "Klebsiella pneumoniae, 1220S; K. pneumoniae 1-220S, 10^6 cells/ml, Gram -; read-out: MIC"}, "[8]": {"system": "Enterobacter cloacae IID 977", "details": "IID977; Enterobacter cloacae IID 977, 10^6 cells/ml, Gram -"}, "[9]": {"system": "Citrobacter freundii IID 976", "details": "IID976; Citrobacter freundii IID 976, 10^6 cells/ml, Gram -; read-out: MIC"}, "[10]": {"system": "Serratia marcescens IID 618", "details": "IID618; Serratia marcescens IID 618, 10^6 cells/ml, Gram -"}, "Shigella sonnei IID 969": {"system": "Shigella sonnei IID 969", "details": "IID969; Shigella sonnei IID 969, 10^6 cells/ml, Gram -", "method": "Minimal inhibitory concentrations (MICs) were determined in accordance with the method recommended by Japan Society of Chemotherapy."}, "[11]": {"system": "Salmonella enteritidis IID 604", "details": "Salmonella enterica; Salmonella enteritidis IID 604, 10^6 cells/ml, Gram -; read-out: MIC"}, "P. aeruginosa IFO 12689": {"system": "P. aeruginosa IFO 12689", "details": "Pseudomonas aeruginosa, IFO12689; P. aeruginosa IFO 12689, 10^6 cells/ml, Gram -"}, "[12]": {"system": "Yersinia enterocolitica IID 981", "details": "IID981; Yersinia enterocolitica IID 981, 10^6 cells/ml, Gram -"}, "[13]": {"system": "Acinetobacter anitratus IID 876", "details": "Acinetobacter calcoaceticus, IID876; Acinetobacter anitratus IID 876, 10^6 cells/ml, Gram -"}, "[14]": {"system": "Alcaligenes faecalis 0104002", "details": "Alcaligenes faecalis 0104002, 10^6 cells/ml, Gram -; read-out: MIC"}, "[15]": {"system": "Bacteroides fragilis GM 7000", "details": "GM7000; Bacteroides fragilis GM 7000, 10^6 cells/ml, Gram -"}, "B. fragilis 0558": {"system": "B. fragilis 0558", "details": "Bacteroides fragilis; B. fragilis 0558, 10^6 cells/ml, Gram -"}, "B. fragilis 25285": {"system": "B. fragilis 25285", "details": "Bacteroides fragilis; B. fragilis 25285, 10^6 cells/ml, Gram -"}, "B. fragilis 8503": {"system": "B. fragilis 8503", "details": "Bacteroides fragilis; B. fragilis 8503, 10^6 cells/ml, Gram -"}, "[16]": {"system": "B. thetaiotaomicron (0661)", "details": "Bacteroides thetaiotaomicron; B. thetaiotaomicron (0661), 10^6 cells/ml, Gram -; read-out: MIC"}, "F. varium KYA 8501": {"system": "F. varium KYA 8501", "details": "Fusobacterium varium, KYA8501; F. varium KYA 8501, 10^6 cells/ml, Gram -; read-out: MIC"}, "[17]": {"system": "Clostridium difficile I-E", "details": "Clostridioides difficile, 10^6 cells/ml, Gram +"}}}
{"smiles": "CCNCC1CCN(c2c(F)cc3c(=O)c(C(=O)O)cn(CC)c3c2F)C1", "note": "(stereo not shown) [CI-934, 1-Ethyl-7-(3-ethylaminomethyl-1-pyrrolidinyl)-6,8-difluoro-1,4-dihydro-4-oxo-3-quinolinecarboxylic acid]", "values": [{"measurement": "MIC", "setting": "[1]", "value": 0.05, "unit": "µg/mL"}, {"measurement": "MIC", "setting": "[2]", "value": 0.1, "unit": "µg/mL"}, {"measurement": "MIC", "setting": "[3]", "value": 0.1, "unit": "µg/mL"}, {"measurement": "MIC", "setting": "S. epidermidis IID 866", "value": 0.1, "unit": "µg/mL"}, {"measurement": "MIC", "setting": "[4]", "value": 0.2, "unit": "µg/mL"}, {"measurement": "MIC", "setting": "S. pyogenes IID 692", "value": 0.39, "unit": "µg/mL"}, {"measurement": "MIC", "setting": "S. pneumoniae IID 552", "value": 0.39, "unit": "µg/mL"}, {"measurement": "MIC", "setting": "E. faecalis IID 682", "value": 0.39, "unit": "µg/mL"}, {"measurement": "MIC", "setting": "[5]", "value": 0.1, "unit": "µg/mL"}, {"measurement": "MIC", "setting": "E. coli ATCC 10536", "value": 0.1, "unit": "µg/mL"}, {"measurement": "MIC", "setting": "[6]", "value": 0.05, "unit": "µg/mL"}, {"measurement": "MIC", "setting": "P. mirabilis IID 994", "value": 0.2, "unit": "µg/mL"}, {"measurement": "MIC", "setting": "P. morganii IID 602", "value": 0.39, "unit": "µg/mL"}, {"measurement": "MIC", "setting": "[7]", "value": 0.2, "unit": "µg/mL"}, {"measurement": "MIC", "setting": "K. pneumoniae 1-220S", "value": 0.39, "unit": "µg/mL"}, {"measurement": "MIC", "setting": "[8]", "value": 0.78, "unit": "µg/mL"}, {"measurement": "MIC", "setting": "[9]", "value": 0.2, "unit": "µg/mL"}, {"measurement": "MIC", "setting": "[10]", "value": 0.39, "unit": "µg/mL"}, {"measurement": "MIC", "setting": "Shigella sonnei IID 969", "value": 0.1, "unit": "µg/mL"}, {"measurement": "MIC", "setting": "[11]", "value": 0.39, "unit": "µg/mL"}, {"measurement": "MIC", "setting": "P. aeruginosa IFO 12689", "value": 6.25, "unit": "µg/mL"}, {"measurement": "MIC", "setting": "[12]", "value": 0.39, "unit": "µg/mL"}, {"measurement": "MIC", "setting": "[13]", "value": 0.39, "unit": "µg/mL"}, {"measurement": "MIC", "setting": "[14]", "value": 6.25, "unit": "µg/mL"}, {"measurement": "MIC", "setting": "[15]", "value": 6.25, "unit": "µg/mL"}, {"measurement": "MIC", "setting": "B. fragilis 0558", "value": 3.13, "unit": "µg/mL"}, {"measurement": "MIC", "setting": "B. fragilis 25285", "value": 3.13, "unit": "µg/mL"}, {"measurement": "MIC", "setting": "B. fragilis 8503", "value": 6.25, "unit": "µg/mL"}, {"measurement": "MIC", "setting": "[16]", "value": 25, "unit": "µg/mL"}, {"measurement": "MIC", "setting": "F. varium KYA 8501", "value": 6.25, "unit": "µg/mL"}, {"measurement": "MIC", "setting": "[17]", "value": 3.13, "unit": "µg/mL"}]}
